Experimental data as given in PubChem BioAssay AID493083 (Broad Institute, 2011).
Activity calls are given as the source filed them.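 The calls were made as follows: active = compounds lowering signal whose fitted AC50 is at most ten times the top tested dose; inconclusive = flat fit with moderate inhibition, or poor curve fit; inactive = the rest.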

Each molecule was assayed on NIH3T3 R4 HSF-1 GFP reporter, heat shock, 48 h (assay: decrease of heat-induced HSF-1 GFP reporter, dose response, NIH3T3 R4 cells, GFP/RFP, cherry-pick, set 3 (AID 493083)).
Molecule `COc1ccccc1-c1cc(C(F)(F)F)nc(S(=O)(=O)CCCC(=O)NCc2ccc(F)cc2)n1` has an AC50 of 5.18 µM. `OCCCNc1nccc(-c2cc(Nc3cccc(Cl)c3)ncn2)n1` showed an AC50 of 18.7 µM. In the case of `Cc1cc(C)c2nc(C(F)(F)F)c(C#N)c(N)c2c1`, the AC50 is reported as > 19.5 µM (inactive). With `Fc1ccc(-n2cc(-c3ccccc3)c3c(N4CCOCC4)ncnc32)cc1` the AC50 was > 19.5 µM (inactive). With `Cn1c(=O)c([N+](=O)[O-])c(Cl)c2ccccc21` the AC50 was 16.9 µM. With `Nc1ccc2oc(C3CCCCC3)nc2c1` the AC50 was > 19.5 µM (inactive). `COc1cccc(-c2nnc3n2N=C(C(C)(C)C)CS3)c1` was tested, and the AC50 was > 19.5 µM (inactive). For `CC(=O)Cn1ncc(Br)c(Br)c1=O`, the AC50 was 5.62 µM. `Cc1ccc(S(=O)(=O)c2ncccc2[N+](=O)[O-])cc1` showed an AC50 of 5.64 µM. In the case of `NC(=O)C1CCN(CC(=O)Nc2nc(-c3ccccc3)cs2)CC1`, the AC50 is reported as > 19.5 µM (inactive). Molecule `CN=c1scc(-c2ccco2)n1/N=C/c1ccc(O)c(O)c1` has an AC50 of 5.23 µM. With `NNC(=S)NC1CC2CC1C1C=CCC21` (configuration not stated) the AC50 was > 19.5 µM (inactive). For `Cc1nn(-c2ccccc2)c(N)c1C(O)(CSc1nccn1C)C(F)(F)F` (configuration not stated), the AC50 was > 19.5 µM (inactive). In the case of `CC[C@H]1CN2CCc3cc(OC)c(OC)cc3[C@@H]2C[C@@H]1C[C@H]1NCCc2cc(OC)c(OC)cc21`, the AC50 is reported as 0.526 µM. For `O=C1C=C(NCCN2CCOCC2)C(=O)c2cnccc21`, the AC50 was 5.57 µM. Molecule `CCOC(=O)c1c(C)[nH]c2c1-c1ccccc1C(=O)C2=O` has an AC50 of 1.4 µM. Molecule `CC12CCC(C/C1=N\N=C1\NC(=O)/C(=C\c3ccc(Cl)cc3)S1)C2(C)C` (configuration not stated) has an AC50 of 2.4 µM. In the case of `CCOc1ccc(C(=O)COC(=O)Cc2n[nH]c(=O)c3ccccc23)cc1`, the AC50 is reported as > 19.5 µM (inactive). `O=S(=O)(C/C(=C/CO)S(=O)(=O)c1ccccc1)c1ccccc1` showed an AC50 of 5.86 µM. With `CCOC(=O)C1CCN(C(=O)CC(C)c2ccccc2)CC1` (configuration not stated) the AC50 was > 10 µM (inactive). With `Nc1ncnc2c1ccn2[C@@H]1O[C@H](CO)[C@@H](O)[C@H]1O` the AC50 was 10.5 µM. Work on `O=C(CCl)Nc1cn(-c2ccccc2)nc1-c1ccc(F)cc1` yielded an AC50 of 4.77 µM. In the case of `Cc1ccc(-n2nc(C)c3cc(C(=O)O)sc32)cc1`, the AC50 is reported as > 19.5 µM (inactive). Molecule `CCc1ccc(S(=O)(=O)/N=C2\C=C(Nc3ccc(O)cc3)C(=O)c3ccccc32)cc1` has an AC50 of 1.74 µM. `Cc1cc([N+](=O)[O-])c2ccccc2[n+]1[O-]` gave an AC50 of 5.71 µM. `C=C(C)C(=O)O[C@H]1C/C(C)=C\C(=O)/C=C(\C)[C@H](O)[C@@H]2OC(=O)C(=C)[C@@H]21` showed an AC50 of 15.4 µM. `O=C(COC(=O)/C=C/c1ccc(C(F)(F)F)cc1)NC1CC1` was tested, and the AC50 was > 19.5 µM (inactive). `CC(C)(C)c1ccc2c(c1)OC(C(=O)N/N=C\c1ccc[nH]1)CO2` (configuration not stated) gave an AC50 of 0.848 µM. In the case of `C#CC(=O)N(c1cc(OC)ccc1OC)C(C(=O)NC1CCCC1)c1cccs1` (configuration not stated), the AC50 is reported as 5.66 µM. `COc1ccc2[nH]c(=O)c(CN(Cc3cccs3)S(=O)(=O)c3c(C)ccc4nsnc34)cc2c1` was tested, and the AC50 was > 19.5 µM (inactive). `CCCCS(=O)(=O)/C=C\C=C/S(=O)(=O)CCCC` showed an AC50 of 5.46 µM. In the case of `O=S(=O)(c1ccc2c(c1)C(=NO)c1cc(S(=O)(=O)N3CCCCC3)ccc1-2)N1CCCCC1`, the AC50 is reported as 2.08 µM. `CC(C)CN=C(NS(=O)(=O)c1ccccc1)C(Cl)(Cl)Cl` gave an AC50 of 16.1 µM. `Nc1nc(F)nc2c1ncn2[C@@H]1O[C@H](CO)[C@@H](O)[C@H]1O` showed an AC50 of 1.61 µM. `S=C1Cc2ccccc2N1` gave an AC50 of 12.4 µM. Molecule `O=C(Nc1ccccc1Cl)/C(Cl)=C(\Cl)S(=O)c1ccccc1` (configuration not stated) has an AC50 of 1.81 µM. Work on `O=C(CCl)N(c1ccccc1)C1CCCCC1` yielded an AC50 of 5.43 µM. With `O=C(CCl)Nc1cc(SCC(O)CO)cc([N+](=O)[O-])c1` (configuration not stated) the AC50 was 5.73 µM. With `CCN(c1ccccc1)S(=O)(=O)c1cnc[nH]1` the AC50 was > 19.5 µM (inactive). `COc1ccc(C[C@H]2NC[C@H](O)[C@H]2OC(C)=O)cc1` showed an AC50 of 0.551 µM. With `CCOC(=O)/C(=C\c1ccc([N+](=O)[O-])cc1)C(=O)c1cc(C(C)=O)c(Nc2ccccc2)s1` the AC50 was 11.7 µM. Work on `Cc1ccc(NC2=C/C(=N\S(=O)(=O)c3cccs3)c3ccccc3C2=O)c(C)c1` yielded an AC50 of 1.32 µM. With `Cc1c(NC(=O)C2CC(c3ccc(F)cc3)=NO2)c(=O)n(-c2ccccc2)n1C` (configuration not stated) the AC50 was > 19.5 µM (inactive). Work on `O=C(CCl)Nc1ccc(-c2ccccc2)cc1` yielded an AC50 of 17.2 µM. `CCOC(=O)Cc1nnc2c(Nc3ccccc3F)nc3nonc3n12` was tested, and the AC50 was 12.4 µM. Molecule `C[C@H]1C[C@@H](C)C(=O)[C@@H]([C@H](O)CC2CC(=O)NC(=O)C2)C1` has an AC50 of 0.336 µM. `COc1cc(C2CC(c3cccs3)=NN2C(=O)CCl)ccc1OC(F)F` (configuration not stated) showed an AC50 of 14.8 µM.
